Data from US11814390B2, “Crystalline forms of 2-[3-[4-amino-3-(2-fluoro-4-phenoxy-phenyl)-1H-pyrazolo[3,4-D]pyrimidin-1-yl]piperidine-1-carbonyl]-4-methyl-4-[4-(oxetan-3-yl)piperazin-1-yl]pent-2-enenitrile” (Principia Biopharma Inc., priority 2020, dated 2023).
“Also recorded” adds a separate entry of the source.

Tests used:
[1] = Conversion between crystalline forms over time / relative thermodynamic stability at room temperature; type: physicochemical
Method: Several crystallization experiments were conducted in as part of a polymorph study for Compound (I). The experiments comprised different crystallization techniques such as suspension equilibration experiments, precipitations, cooling crystallizations, and vapor diffusion experiments.

[2] = Water content upon storage at high relative humidity (hygroscopicity); type: physicochemical; conditions: storage at 85% relative humidity (RH)

water content upon storage [2] | SMILES | conversion of crystalline form over time ([1]; over time) | relative thermodynamic stability of crystalline form ([1]; at room temperature)
less than 1% | CC(C)(C=C(C#N)C(=O)N1CCC[C@@H](n2nc(-c3ccc(Oc4ccccc4)cc3F)c3c(N)ncnc32)C1)N1CCN(C2COC2)CC1 [crystalline Form A, (R)-2-[3-[4-amino-3-(2-fluoro-4-phenoxy-phenyl)pyrazolo[3,4-d]pyrimidin-1-yl]piperidine-1-carbonyl]-4-methyl-4-[4-(oxetan-3-yl)piperazin-1-yl]pent-2-enenitrile] | may convert to crystalline Form B over time | –
– | CC(C)(C=C(C#N)C(=O)N1CCC[C@@H](n2nc(-c3ccc(Oc4ccccc4)cc3F)c3c(N)ncnc32)C1)N1CCN(C2COC2)CC1 [Crystalline Form B, (R)-2-[3-[4-amino-3-(2-fluoro-4-phenoxy-phenyl)pyrazolo[3,4-d]pyrimidin-1-yl]piperidine-1-carbonyl]-4-methyl-4-[4-(oxetan-3-yl)piperazin-1-yl]pent-2-enenitrile] | – | may be thermodynamically more stable than crystalline Form A; also recorded: may be more thermodynamically more stable than crystalline Form C
